Read-outs that look alike come from different tables or passages of the source.
What was measured:
Type in all cases: biochemical
CHK2 = CHK2 (Homo sapiens, UniProt O96017); assay: Activity against various protein tyrosine kinases: CHK2; settings: for inhibition at 0.01 µM: 10 nM
Experimental: (§1) Using techniques know those of ordinary skill in the art, compounds were tested for activity against various protein tyrosine kinases.

GSK3b = GSK3b (Homo sapiens, UniProt P49841); assay: Activity against various protein tyrosine kinases: GSK3b; settings: for inhibition at 0.01 µM: 10 nM
GSK3b, sequence (P49841 whole entry, species assumed): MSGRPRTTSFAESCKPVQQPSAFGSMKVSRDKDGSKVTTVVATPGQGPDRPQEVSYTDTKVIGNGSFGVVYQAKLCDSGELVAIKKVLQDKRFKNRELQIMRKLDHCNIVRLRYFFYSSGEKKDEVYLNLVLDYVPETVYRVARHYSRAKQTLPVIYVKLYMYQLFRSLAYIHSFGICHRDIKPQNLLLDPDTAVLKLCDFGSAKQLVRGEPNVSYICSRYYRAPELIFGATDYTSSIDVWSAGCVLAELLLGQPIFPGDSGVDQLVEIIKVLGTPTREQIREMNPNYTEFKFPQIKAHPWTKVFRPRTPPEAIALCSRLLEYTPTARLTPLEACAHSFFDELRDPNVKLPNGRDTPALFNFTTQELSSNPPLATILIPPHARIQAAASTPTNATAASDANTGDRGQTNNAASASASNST
Experimental: as §1

FGFR2 = FGFR2 (Homo sapiens, UniProt P21802); assay: Activity against various protein tyrosine kinases: FGFR2; settings: for inhibition at 0.01 µM: 10 nM
Experimental: as §1

p38-beta2 = p38-beta2 (Homo sapiens, UniProt Q15759); assay: Activity against various protein tyrosine kinases: p38-beta2; settings: for inhibition at 0.01 µM: 10 nM
p38-beta2, sequence (Q15759 whole entry): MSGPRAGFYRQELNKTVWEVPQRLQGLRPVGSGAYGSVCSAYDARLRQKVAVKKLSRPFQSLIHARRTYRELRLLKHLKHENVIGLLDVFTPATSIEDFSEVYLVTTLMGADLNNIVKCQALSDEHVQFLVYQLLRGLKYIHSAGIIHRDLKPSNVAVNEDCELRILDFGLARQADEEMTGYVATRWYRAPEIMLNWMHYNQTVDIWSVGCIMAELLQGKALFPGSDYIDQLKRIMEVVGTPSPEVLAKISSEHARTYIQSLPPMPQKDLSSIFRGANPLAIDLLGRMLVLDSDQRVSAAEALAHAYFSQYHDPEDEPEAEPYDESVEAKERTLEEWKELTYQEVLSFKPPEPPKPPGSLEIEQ
Experimental: as §1

AKT3 = AKT3 (Homo sapiens, UniProt Q9Y243); assay: Activity against various protein tyrosine kinases: AKT3; settings: for inhibition at 0.01 µM: 10 nM
AKT3, sequence (Q9Y243 whole entry, species assumed): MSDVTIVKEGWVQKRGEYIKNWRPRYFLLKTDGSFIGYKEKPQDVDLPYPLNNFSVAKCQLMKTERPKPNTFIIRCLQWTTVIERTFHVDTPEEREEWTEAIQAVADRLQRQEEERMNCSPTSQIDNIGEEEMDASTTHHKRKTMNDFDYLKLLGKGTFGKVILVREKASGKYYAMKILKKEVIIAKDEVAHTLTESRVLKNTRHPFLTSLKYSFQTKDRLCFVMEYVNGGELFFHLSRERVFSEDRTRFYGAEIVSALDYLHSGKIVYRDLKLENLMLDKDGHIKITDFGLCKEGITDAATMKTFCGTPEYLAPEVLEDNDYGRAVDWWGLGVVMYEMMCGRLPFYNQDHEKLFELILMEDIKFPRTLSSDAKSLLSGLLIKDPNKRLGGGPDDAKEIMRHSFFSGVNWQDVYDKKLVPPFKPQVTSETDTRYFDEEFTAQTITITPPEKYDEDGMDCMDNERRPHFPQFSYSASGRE
Experimental: as §1

AurB = AurB (Homo sapiens, UniProt Q96GD4); assay: Activity against various protein tyrosine kinases: AurB; settings: for inhibition at 1 µM: read-out: % Inhibition at 1 μM; for inhibition at 0.01 µM: 10 nM
AurB, sequence (Q96GD4 whole entry): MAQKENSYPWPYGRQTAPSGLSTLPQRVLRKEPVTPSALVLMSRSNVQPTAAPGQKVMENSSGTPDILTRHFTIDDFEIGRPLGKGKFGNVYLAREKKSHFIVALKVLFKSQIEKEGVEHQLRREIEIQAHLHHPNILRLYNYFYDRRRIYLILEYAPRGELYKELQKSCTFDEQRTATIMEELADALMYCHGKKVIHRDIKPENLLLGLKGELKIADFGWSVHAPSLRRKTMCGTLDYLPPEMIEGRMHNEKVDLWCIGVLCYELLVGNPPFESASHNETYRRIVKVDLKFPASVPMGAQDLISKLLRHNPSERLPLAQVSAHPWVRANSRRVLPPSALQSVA
Experimental: as §1

cKIT = cKIT (Homo sapiens, UniProt P10721); assay: Activity against various protein tyrosine kinases: CKIT; design: purchased MILLIPORE 14-559; settings: for inhibition at 0.01 µM: 10 nM
Experimental: as §1

CHK1 = target: T1, CHK1 (Homo sapiens, UniProt O14757); assay: Activity against various protein tyrosine kinases: CHK1; settings: for inhibition at 0.01 µM: 10 nM
T1 sequence (O14757 1-476): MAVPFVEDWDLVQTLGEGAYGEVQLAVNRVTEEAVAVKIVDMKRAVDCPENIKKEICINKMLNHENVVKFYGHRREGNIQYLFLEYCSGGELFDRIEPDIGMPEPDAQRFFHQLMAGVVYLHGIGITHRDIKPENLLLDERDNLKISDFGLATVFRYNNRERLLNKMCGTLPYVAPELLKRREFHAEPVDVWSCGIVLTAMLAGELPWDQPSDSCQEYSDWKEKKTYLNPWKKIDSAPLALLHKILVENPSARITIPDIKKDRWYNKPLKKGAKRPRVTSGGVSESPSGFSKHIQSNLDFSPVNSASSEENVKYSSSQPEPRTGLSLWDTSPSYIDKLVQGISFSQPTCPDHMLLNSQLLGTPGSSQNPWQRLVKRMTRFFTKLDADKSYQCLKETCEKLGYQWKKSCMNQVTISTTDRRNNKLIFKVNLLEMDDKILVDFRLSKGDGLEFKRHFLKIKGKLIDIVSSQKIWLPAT
Experimental: as §1

MET = MET (Homo sapiens, UniProt P08581); assay: Activity against various protein tyrosine kinases: MET; settings: for inhibition at 0.01 µM: 10 nM
Experimental: as §1

Fer = Fer (Homo sapiens, UniProt P16591); assay: Activity against various protein tyrosine kinases: Fer; settings: for inhibition at 0.01 µM: 10 nM
Fer, sequence (P16591 whole entry, species assumed): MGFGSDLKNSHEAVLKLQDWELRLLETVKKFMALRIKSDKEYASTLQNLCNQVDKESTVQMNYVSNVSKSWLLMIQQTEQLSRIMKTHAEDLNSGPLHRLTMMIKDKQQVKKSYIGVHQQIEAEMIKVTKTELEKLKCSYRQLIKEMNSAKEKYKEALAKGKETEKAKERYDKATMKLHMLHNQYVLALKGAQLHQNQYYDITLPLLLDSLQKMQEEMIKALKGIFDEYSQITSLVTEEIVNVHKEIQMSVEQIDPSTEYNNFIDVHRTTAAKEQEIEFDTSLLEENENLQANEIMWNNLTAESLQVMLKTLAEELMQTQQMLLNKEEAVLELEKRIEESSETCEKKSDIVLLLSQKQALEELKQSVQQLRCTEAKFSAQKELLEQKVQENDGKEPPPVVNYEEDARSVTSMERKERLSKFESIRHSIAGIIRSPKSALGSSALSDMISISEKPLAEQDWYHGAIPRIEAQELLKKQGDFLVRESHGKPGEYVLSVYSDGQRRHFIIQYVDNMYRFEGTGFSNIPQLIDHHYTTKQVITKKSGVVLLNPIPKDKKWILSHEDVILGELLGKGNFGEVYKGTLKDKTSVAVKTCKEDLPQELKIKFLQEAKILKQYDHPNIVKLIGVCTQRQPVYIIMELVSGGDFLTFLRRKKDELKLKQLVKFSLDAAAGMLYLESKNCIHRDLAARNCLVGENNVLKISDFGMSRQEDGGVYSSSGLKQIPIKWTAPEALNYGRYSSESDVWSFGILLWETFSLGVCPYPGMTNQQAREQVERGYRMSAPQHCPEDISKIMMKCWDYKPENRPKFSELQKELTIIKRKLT
Experimental: as §1

CK1d = CK1d (Homo sapiens, UniProt P48730); assay: Activity against various protein tyrosine kinases: CK1d; settings: for inhibition at 0.01 µM: 10 nM
CK1d, sequence (P48730 whole entry): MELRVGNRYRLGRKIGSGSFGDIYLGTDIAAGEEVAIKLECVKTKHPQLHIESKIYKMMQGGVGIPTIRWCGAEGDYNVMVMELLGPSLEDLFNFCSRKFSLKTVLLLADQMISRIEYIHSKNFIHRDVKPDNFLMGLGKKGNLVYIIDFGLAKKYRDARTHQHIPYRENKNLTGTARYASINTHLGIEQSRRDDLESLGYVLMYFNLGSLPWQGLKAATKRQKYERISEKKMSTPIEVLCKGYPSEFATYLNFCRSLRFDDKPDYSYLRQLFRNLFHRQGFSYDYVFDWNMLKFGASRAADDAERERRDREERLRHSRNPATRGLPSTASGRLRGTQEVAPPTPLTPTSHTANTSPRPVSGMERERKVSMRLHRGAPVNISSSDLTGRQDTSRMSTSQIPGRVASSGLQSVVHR
Experimental: as §1

MSK1 = MSK1 (Homo sapiens, UniProt O75582); assay: Activity against various protein tyrosine kinases: MSK1; settings: for inhibition at 0.01 µM: 10 nM
MSK1, sequence (O75582 whole entry, species assumed): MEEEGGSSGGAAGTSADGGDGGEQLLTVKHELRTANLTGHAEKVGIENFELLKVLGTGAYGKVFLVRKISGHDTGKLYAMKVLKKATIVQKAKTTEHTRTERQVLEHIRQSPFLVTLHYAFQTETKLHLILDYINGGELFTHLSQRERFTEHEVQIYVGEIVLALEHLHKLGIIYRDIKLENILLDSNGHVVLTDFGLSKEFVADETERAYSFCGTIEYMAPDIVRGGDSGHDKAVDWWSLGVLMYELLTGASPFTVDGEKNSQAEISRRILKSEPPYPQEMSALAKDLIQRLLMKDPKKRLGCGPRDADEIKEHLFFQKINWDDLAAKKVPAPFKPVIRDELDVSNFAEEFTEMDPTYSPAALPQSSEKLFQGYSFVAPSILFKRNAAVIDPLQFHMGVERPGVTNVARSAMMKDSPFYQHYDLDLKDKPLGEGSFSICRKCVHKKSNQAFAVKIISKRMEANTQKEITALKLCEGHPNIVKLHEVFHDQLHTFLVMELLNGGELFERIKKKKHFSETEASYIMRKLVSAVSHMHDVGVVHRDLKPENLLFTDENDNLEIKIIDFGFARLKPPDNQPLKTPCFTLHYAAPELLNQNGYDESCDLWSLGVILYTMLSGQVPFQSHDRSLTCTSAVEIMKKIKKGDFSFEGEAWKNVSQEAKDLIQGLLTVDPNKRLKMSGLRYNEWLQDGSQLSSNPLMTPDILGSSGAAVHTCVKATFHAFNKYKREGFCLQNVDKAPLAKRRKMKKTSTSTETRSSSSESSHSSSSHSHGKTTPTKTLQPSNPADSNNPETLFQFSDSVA
Experimental: as §1

PRAK = target: T2, PRAK (Homo sapiens, UniProt Q8IW41); assay: Activity against various protein tyrosine kinases: PRAK; settings: for inhibition at 0.01 µM: 10 nM
T2 sequence (Q8IW41 1-473): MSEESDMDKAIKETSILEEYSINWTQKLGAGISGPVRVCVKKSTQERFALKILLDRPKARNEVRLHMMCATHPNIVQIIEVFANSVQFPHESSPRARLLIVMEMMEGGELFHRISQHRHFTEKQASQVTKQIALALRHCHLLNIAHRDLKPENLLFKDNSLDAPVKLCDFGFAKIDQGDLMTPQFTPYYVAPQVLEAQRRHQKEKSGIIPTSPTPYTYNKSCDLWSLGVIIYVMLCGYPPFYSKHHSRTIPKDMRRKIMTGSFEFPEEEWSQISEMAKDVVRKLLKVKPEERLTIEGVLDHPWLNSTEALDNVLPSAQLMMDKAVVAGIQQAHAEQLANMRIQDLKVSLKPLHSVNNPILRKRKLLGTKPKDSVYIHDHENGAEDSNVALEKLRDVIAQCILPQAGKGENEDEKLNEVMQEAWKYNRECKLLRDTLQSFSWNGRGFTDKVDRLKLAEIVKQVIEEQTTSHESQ
Experimental: as §1

AurA = target: T3, AurA (Homo sapiens, UniProt O14965); assay: Activity against various protein tyrosine kinases: AurA; settings: for inhibition at 0.01 µM: 10 nM
T3 sequence (O14965 1-403): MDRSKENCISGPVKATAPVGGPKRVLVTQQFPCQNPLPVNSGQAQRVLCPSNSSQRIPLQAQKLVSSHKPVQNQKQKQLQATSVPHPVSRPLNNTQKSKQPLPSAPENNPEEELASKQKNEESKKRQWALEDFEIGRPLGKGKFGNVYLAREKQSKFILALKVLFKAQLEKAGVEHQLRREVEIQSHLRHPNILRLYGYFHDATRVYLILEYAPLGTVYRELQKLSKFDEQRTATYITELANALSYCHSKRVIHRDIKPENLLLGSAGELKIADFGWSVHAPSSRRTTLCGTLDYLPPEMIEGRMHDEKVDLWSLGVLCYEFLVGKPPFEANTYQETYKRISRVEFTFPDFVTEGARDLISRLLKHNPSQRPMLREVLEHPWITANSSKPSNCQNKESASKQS
Experimental: as §1

TSSK1 = target: T4, TSSK1 (Homo sapiens, UniProt Q9BXA7); assay: Activity against various protein tyrosine kinases: TSSK1; settings: for inhibition at 0.01 µM: 10 nM
T4 sequence (Q9BXA7 1-367): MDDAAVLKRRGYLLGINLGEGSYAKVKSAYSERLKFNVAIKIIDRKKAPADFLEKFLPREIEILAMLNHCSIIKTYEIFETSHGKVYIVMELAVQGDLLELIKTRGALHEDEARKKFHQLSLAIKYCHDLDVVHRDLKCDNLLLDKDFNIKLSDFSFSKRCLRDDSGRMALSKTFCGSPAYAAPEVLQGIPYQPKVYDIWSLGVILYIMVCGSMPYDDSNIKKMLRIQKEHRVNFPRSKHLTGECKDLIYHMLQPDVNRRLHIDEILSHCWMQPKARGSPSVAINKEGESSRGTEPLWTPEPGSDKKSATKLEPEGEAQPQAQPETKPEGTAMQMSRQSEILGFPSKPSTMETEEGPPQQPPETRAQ
Experimental: as §1

Erk2 = Erk2 (Homo sapiens, UniProt P28482); assay: Activity against various protein tyrosine kinases: Erk2; settings: for inhibition at 0.01 µM: 10 nM
Erk2, sequence (P28482 whole entry, species assumed): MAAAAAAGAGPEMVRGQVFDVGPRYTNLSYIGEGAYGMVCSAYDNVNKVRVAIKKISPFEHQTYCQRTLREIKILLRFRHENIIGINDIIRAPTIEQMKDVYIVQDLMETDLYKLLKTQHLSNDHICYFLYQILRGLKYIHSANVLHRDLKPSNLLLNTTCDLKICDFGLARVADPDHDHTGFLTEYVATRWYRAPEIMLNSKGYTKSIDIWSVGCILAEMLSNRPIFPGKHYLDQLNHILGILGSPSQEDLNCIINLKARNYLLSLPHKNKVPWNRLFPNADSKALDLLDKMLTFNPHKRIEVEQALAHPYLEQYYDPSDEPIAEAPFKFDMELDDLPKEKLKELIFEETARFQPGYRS
Experimental: as §1

CHK2, sequence (O96017 whole entry, species assumed): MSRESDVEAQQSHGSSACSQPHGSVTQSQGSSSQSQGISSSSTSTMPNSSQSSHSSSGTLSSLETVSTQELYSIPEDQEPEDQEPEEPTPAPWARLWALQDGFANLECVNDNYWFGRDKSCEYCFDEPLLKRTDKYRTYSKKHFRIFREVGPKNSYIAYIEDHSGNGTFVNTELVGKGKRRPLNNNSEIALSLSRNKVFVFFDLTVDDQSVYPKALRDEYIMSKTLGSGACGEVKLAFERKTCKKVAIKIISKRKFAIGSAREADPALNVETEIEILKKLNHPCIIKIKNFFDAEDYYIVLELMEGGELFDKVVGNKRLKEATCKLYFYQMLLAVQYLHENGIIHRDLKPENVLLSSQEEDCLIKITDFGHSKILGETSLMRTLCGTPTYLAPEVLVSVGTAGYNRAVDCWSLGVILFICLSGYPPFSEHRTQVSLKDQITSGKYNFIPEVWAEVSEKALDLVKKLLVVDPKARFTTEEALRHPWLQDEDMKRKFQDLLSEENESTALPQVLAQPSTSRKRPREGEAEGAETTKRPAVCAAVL

Compound	inhibition at 0.01 µM (CHK2)	inhibition at 0.01 µM (GSK3b)	inhibition at 0.01 µM (FGFR2)	inhibition at 1 µM (FGFR2)	inhibition at 0.01 µM (p38-beta2)	inhibition at 1 µM (p38-beta2)	inhibition at 0.01 µM (AKT3)	inhibition at 1 µM (AKT3)	inhibition at 0.01 µM (cKIT)	inhibition at 0.01 µM (CHK1)	inhibition at 0.01 µM (MET)	inhibition at 0.01 µM (Fer)	inhibition at 0.01 µM (CK1d)	inhibition at 1 µM (MSK1)	inhibition at 0.01 µM (PRAK)	inhibition at 0.01 µM (AurA)	inhibition at 0.01 µM (TSSK1)	inhibition at 1 µM (TSSK1)	inhibition at 0.01 µM (Erk2)	inhibition at 1 µM (CHK2)	other results
Cc1nc(Nc2ncc(C(=O)Nc3c(C)cccc3Cl)s2)cc(N2CCN(CCO)CC2)n1 [Dasatinib, reference compound]	3%	7%	3%	36%	-2%	34%	-3%	-4%	30%	3%	-2%	-3%	1%	3%	-2%	-2%	-5%	-6%	-2%		inhibition at 1 µM (AurB): 6%
COCCOCCOCCOCCOCCOCCOCCNC(=O)OCCN1CCN(c2cc(Nc3ncc(C(=O)Nc4c(C)cccc4Cl)s3)nc(C)n2)CC1 [mPEG7-NHCOO-Dasatinib]	2%	3%	5%	35%	0%	35%	-3%	-2%	34%	10%	1%	-2%	0%	5%	8%	3%	-3%	-5%	3%	1%	inhibition at 1 µM (GSK3b): 2%; inhibition at 0.01 µM (AurB; AurB): 0%; inhibition at 1 µM (AurB; AurB, 1 μM): 4%; inhibition at 1 µM (cKIT): 100%; inhibition at 1 µM (CHK1): 8%; inhibition at 1 µM (MET): 1%; inhibition at 1 µM (Fer): 5%; inhibition at 1 µM (CK1d): 9%; inhibition at 0.01 µM (MSK1): 3%; inhibition at 1 µM (PRAK): 0%; inhibition at 1 µM (AurA): 28%; inhibition at 1 µM (Erk2): 2%
COCCOCCOCCNC(=O)OCCN1CCN(c2cc(Nc3ncc(C(=O)Nc4c(C)cccc4Cl)s3)nc(C)n2)CC1 [mPEG3-NHCOO-Dasatinib]	1%	4%	-2%	38%	3%	48%	0%	-1%	34%	-2%	3%	-4%	1%	1%	6%	-7%	-1%	0%	6%	11%	inhibition at 1 µM (GSK3b): 1%; inhibition at 0.01 µM (AurB; AurB): -1%; inhibition at 1 µM (AurB; AurB, 1 μM): 4%; inhibition at 1 µM (cKIT): 100%; inhibition at 1 µM (CHK1): 0%; inhibition at 1 µM (MET): 0%; inhibition at 1 µM (Fer): 5%; inhibition at 1 µM (CK1d): 3%; inhibition at 0.01 µM (MSK1): 2%; inhibition at 1 µM (PRAK): 4%; inhibition at 1 µM (AurA): 19%; inhibition at 1 µM (Erk2): 11%

Source: patent US20120094998A1, “Oligomer-Protein Tyrosine Kinase Inhibitor Conjugates” (Nektar Therapeutics, priority 2009, published 2012)
